{
  "source": "patent US20140272000A1",
  "about": "“Liquids and Foodstuffs Containing beta-hydroxy-beta-methylbutyrate (HMB) in the Free Acid Form and Methods of Manufacturing or Producing the Same” (Metabolic Technologies, Inc., priority 2013, published 2014)",
  "assay_type_in_all_cases": "physicochemical",
  "key": {"[1]": {"assay": "Stability of product composition (physical appearance) with the addition of HMB, free acid and calcium salt forms", "conditions": "Ensure Clear, two flavors, 1 g CaHMB or 0.8 g HMB free acid in 40 ml", "method": "• 1. N=2 (Two flavors of a commercially available ready-to-drink soluble-protein product; Ensure Clear, pH approximately 2.74) • 2. Label the glass bottles A1-A3 and B1-B3. The labels correspond to the following conditions:\n• 3. To bottles A2 and B2 1 g of CaHMB MTI 1208-100-02 TSI 12070630 added. • 4. To bottles A3 and B3 0.8 g of HMB Free Acid MTI 1103-100-09 Lot 11010084 added. • 5. 40 ml of Peach flavored product added to the bottles labeled A1-A3. • 6. 40 ml of Blueberry Pomegranate flavored product added to the bottles labeled B1-B3. • 7. Bottles were sealed with rubber caps and crimped shut. Then, they were mixed well and placed on shelf. • 8. Appearances were noted and photos were taken daily (bottles were not disturbed).\nTable 2 reports the physical appearance of the ready-to-drink soluble-protein product (n=2) following the addition of CaHMB or HMB free acid and mixing. HMB was not added to the control bottles. Day 1 was recorded after initial mixing."}, "[2]": {"assay": "Long term stability (appearance) in soluble-protein drinks", "conditions": "42 days; ISOPURE protein drink, GNC protein juice, Gatorade Recover, Spartos protein water; 250 mg CaHMB or 200 mg HMB FA in 40 ml", "method": "• 1. Rinse 12 glass bottles with ethanol and let air dry overnight. • 2. Label the glass bottles A1-A3, B1-B3, C1-C3 and D1-D3. The labels correspond to the following conditions:\n• 3. To bottles A2-D2 CaHMB MTI 1208-100-02 TSI 12070630 was used. • 4. To bottles A3-D3 HMB Free Acid MTI 1103-100-09 Lot 11010084 was used. • 5. Add 40 ml of ISOPURE protein drink to A1-A3, 40 ml of GNC protein juice to B1-B3, 40 ml Gatorade Recover to C1-C3, and 40 ml Spartos protein water to D1-D3. • 6. Flush with nitrogen and seal the bottles with rubber caps and metal clamp caps. • 7. Mix well. • 8. Take photo of bottles A1-A3, B1-B3, C1-C3, and D1-D3 every Friday. The photos appear in FIG. 2a-2d. The following tables 6-9 provide the nutritional information for each of the liquids tested (ISOPURE, GNC Protein Juice, Gatorade G3-Recover, and Spartos protein water.)"}, "[3]": {"assay": "General observation on addition of HMB forms to liquids"}, "[4]": {"assay": "Stability of HMB-acid at various concentrations in soluble protein (ISOPURE protein drink) over 120 days, HPLC", "method": "This experiment was designed to observe the stability of HMB-acid at various concentrations in soluble protein over 120 days.\nTo analyze the stability of HMB free acid in the soluble protein (ISOPURE protein drink, Natures Best®, Hauppauge, N.Y.), different concentrations of HMB free acid were added to the recommended serving size of ISOPURE protein drink. The three concentrations were 300 mg/240 ml, 1000 mg/240 ml, and 3000 mg/240 ml. HMB free acid was measured for each solution using HPLC at 5 different time points: 0, 30, 60, 90, and 120 d. HMB free acid used was MTI 1301-100-03 (Lot 120111036). ISOPURE protein drink used was Lot 1212111132310. ISOPURE protein drink has a pH of approximately 2.54. All glassware and supplies used were autoclaved in preparation of the three different concentrations of HMB free acid in ISOPURE protein drink for the 5 different time points. Materials to be autoclaved were as follows: glass bottles, rubber and metal seals, pipette tips, and graduated cylinder. Autoclave Method #1 for dry goods in Building 3 of ISU Research Park was used.\n• For bottles in group A, 60 mg of HMBFA into each of the five bottles was added, and then 48 ml of ISOPURE protein drink was added. The HMBFA concentration was 1.25 mg/ml. • For bottles in group B 200 mg of HMBFA into each of the five bottles was added, and then 48 ml of ISOPURE protein drink was added. The HMBFA concentration was 4.16 mg/ml. • For bottles in group C, 600 mg of HMBFA into each of the five bottles was, and then 48 ml of ISOPURE protein drink was added.\nEach sample bottle was flushed with nitrogen and then the top of the bottle was sealed with rubber caps, crimped shut and mix well. • One bottle of each concentration was tested for HMB using SOP 113-04 HMB (modified standard curve), at Time 0, 30, 60, 90, and 120 d.\nTo prepare the samples for testing, 0.5 ml of the sample was transferred to a microcentrifuge tube in quadruplet. Then 0.25 ml of KIV internal standard added to standards and three of each sample set. Finally, 0.25 ml 0.2M phosphate buffer was added to the three samples with KIV internal standard and 0.5 ml 0.2M phosphate buffer to the samples not containing KIV.\nThe samples were considered stable with a ±5% of expected change HMB concentration over the four months with an allowable ±3% analytical variation. A linear regression was conducted on the data as a secondary measure of stability."}, "[5]": {"conditions": "Day 1 (after initial mixing), pH approximately 2.74"}},
  "data": [
    {"smiles": "CC(C)(O)CC(=O)[O-].CC(C)(O)CC(=O)[O-].[Ca+2]", "note": "[CaHMB, reference compound]", "values": [
      {"measurement": "Physical appearance", "setting": "[1]; [5]", "result": "Cloudy"},
      {"measurement": "Physical appearance", "setting": "[1]; Day 7, bottles not disturbed", "result": "Defined Separation"},
      {"measurement": "Physical appearance", "setting": "[1]; Day 14, bottles not disturbed", "result": "Defined Separation w/Particulates"},
      {"measurement": "Physical appearance", "setting": "[1]; Day 21, bottles not disturbed", "result": "Defined Separation w/Particulates"},
      {"measurement": "Appearance of the liquids", "setting": "[2]", "result": "cloudy and contain precipitate"},
      {"measurement": "Changes in the physical appearance on addition", "setting": "[3]; commercially available soluble-protein containing ready-to-drink products", "result": "sedimentation and clumping"}
    ]},
    {"smiles": "CC(C)(O)CC(=O)O", "note": "[HMB free acid, β-Hydroxy-β-methylbutyrate]", "values": [
      {"measurement": "Physical appearance", "setting": "[1]; [5]", "result": "Semi-Clear"},
      {"measurement": "Physical appearance", "setting": "[1]; Day 7, bottles not disturbed", "result": "Semi-Clear"},
      {"measurement": "Physical appearance", "setting": "[1]; Day 14, bottles not disturbed", "result": "Semi-Clear"},
      {"measurement": "Physical appearance", "setting": "[1]; Day 21, bottles not disturbed", "result": "Semi-Clear"},
      {"measurement": "Appearance of the liquids", "setting": "[2]", "result": "clear and precipitate-free"},
      {"measurement": "Decrease in HMB free acid, of the expected amount", "setting": "[4]; 300 mg/serving of soluble protein, 120 days (FIG. 3)", "result": "less than 8%"},
      {"measurement": "Linear decrease over time (linear regression)", "setting": "[4]; 300 mg/serving, 120 days, p<0.05", "result": "no significant linear decrease"},
      {"measurement": "Decrease in HMB free acid, of the expected amount", "setting": "[4]; 1000 mg/serving of soluble protein, 120 days (FIG. 4)", "result": "less than 8%"},
      {"measurement": "Linear decrease over time (linear regression)", "setting": "[4]; 1000 mg/serving, 120 days, p<0.05", "result": "no significant linear decrease"},
      {"measurement": "Decrease in HMB free acid, of the expected amount", "setting": "[4]; 3000 mg/serving of soluble protein, 120 days (FIG. 5)", "result": "less than 8%"},
      {"measurement": "Linear decrease over time (linear regression)", "setting": "[4]; 3000 mg/serving, 120 days, p<0.05", "result": "no significant linear decrease"},
      {"measurement": "Stability in a drink containing soluble protein", "setting": "[4]; room temperature, 120 days", "result": "remaining stable"},
      {"measurement": "Changes in HMB concentration over time", "setting": "[4]; three concentrations (300, 1000, 3000 mg/serving) in ISOPURE, 120 d", "result": "less than 8.0%"},
      {"measurement": "Linear decrease over time (linear regression)", "setting": "[4]; three concentrations in ISOPURE, 120 d, p>0.05", "result": "no significant linear decrease"},
      {"measurement": "Going into solution when added to a liquid", "setting": "[3]; added to a liquid, slight shaking", "result": "goes into solution almost instantly"}
    ]}
  ]
}
